The structures appear in SMILES notation.

Consider 19 molecules from ChEMBL document CHEMBL4261659, “Synthesis and biological evaluation of novel N-substituted nipecotic acid derivatives with a trans-alkene spacer as potent GABA uptake inhibitors” (Bioorg Med Chem, 2018).

In experiment [1] the target is T1, Sodium- and chloride-dependent GABA transporter 1 (Mus musculus, UniProt P31648). The experiment in a line: Displacement of NO711 from mouse GAT1 expressed in stable HEK293 cells preincubated for 10 mins followed by NO711 addition and measured after 40 mins by LC-ESI-MS/MS analysis. Format: cell-based.
In experiment [2] the target is T1, Sodium- and chloride-dependent GABA transporter 1. The experiment in a line: Inhibition of mouse GAT1 expressed in HEK293 cells assessed as reduction in [3H]GABA uptake preincubated for 25 mins followed by [3H]GABA addition and measured after 4 mins by liquid scintillation counting method. Format: cell-based.
The target in a further experiment is T2, GABA transporter 4 (Mus musculus, UniProt P31650).
T2 sequence (P31650 whole entry): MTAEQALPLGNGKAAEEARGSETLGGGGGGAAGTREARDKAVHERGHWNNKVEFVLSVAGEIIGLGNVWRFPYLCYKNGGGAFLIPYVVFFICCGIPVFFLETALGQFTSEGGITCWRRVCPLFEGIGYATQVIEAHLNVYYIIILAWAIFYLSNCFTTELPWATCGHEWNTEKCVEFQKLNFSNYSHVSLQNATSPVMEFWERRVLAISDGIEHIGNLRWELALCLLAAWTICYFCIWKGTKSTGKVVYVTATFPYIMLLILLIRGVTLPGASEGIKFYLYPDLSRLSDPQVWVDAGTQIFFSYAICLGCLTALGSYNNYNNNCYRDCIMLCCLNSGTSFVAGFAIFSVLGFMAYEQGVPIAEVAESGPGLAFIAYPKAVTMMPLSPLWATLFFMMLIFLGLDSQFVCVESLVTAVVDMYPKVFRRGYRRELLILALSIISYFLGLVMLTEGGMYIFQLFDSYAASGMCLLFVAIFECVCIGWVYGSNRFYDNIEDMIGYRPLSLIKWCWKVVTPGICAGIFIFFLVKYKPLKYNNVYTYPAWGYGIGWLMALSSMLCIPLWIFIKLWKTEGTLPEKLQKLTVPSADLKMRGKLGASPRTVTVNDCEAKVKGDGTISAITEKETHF
The experiment in a line: Inhibition of mouse GAT4 expressed in HEK293 cells assessed as reduction in [3H]GABA uptake preincubated for 25 mins followed by [3H]GABA addition and measured after 4 mins by liquid scintillation counting method. Format: cell-based.

The target in experiment [3] is Sodium- and chloride-dependent GABA transporter 1 (Mus musculus) (UniProt P31648). The experiment in a line: Inhibition of mouse GAT1 expressed in HEK293 cells assessed as remaining [3H]GABA uptake at 100 uM preincubated for 25 mins followed by [3H]GABA addition and measured after 4 mins by liquid scintillation counting method. Format: cell-based.
Experiment [4] concerns the target T3, GABA transporter 4 (Mus musculus) (UniProt P31650).
T3 sequence (whole entry): T2 sequence (P31650 whole entry)
In words: Inhibition of mouse GAT4 expressed in HEK293 cells assessed as remaining [3H]GABA uptake at 100 uM preincubated for 25 mins followed by [3H]GABA addition and measured after 4 mins by liquid scintillation counting method. Format: cell-based.

The subject of experiment [5] is Betaine/GABA transporter BGT1 (Mus musculus). In words: Inhibition of mouse GAT2 expressed in HEK293 cells assessed as remaining [3H]GABA uptake at 100 uM preincubated for 25 mins followed by [3H]GABA addition and measured after 4 mins by liquid scintillation counting method.
The test system of experiment [6] is GABA transporter 3 (Mus musculus). In words: Inhibition of mouse GAT3 expressed in HEK293 cells assessed as remaining [3H]GABA uptake at 100 uM preincubated for 25 mins followed by [3H]GABA addition and measured after 4 mins by liquid scintillation counting method.
The target of experiment [7] is Sodium- and chloride-dependent GABA transporter 1 (Mus musculus) (UniProt P31648). The experiment in a line: Displacement of NO711 from mouse GAT1 expressed in stable HEK293 cells assessed as remaining specific NO711 binding level preincubated at 100 uM for 10 mins followed by NO711 addition and measured after 40 mins by LC-ESI-MS/MS analysis. Format: cell-based.

With `COc1ccc(C(/C=C/CN2CCC[C@H](C(=O)O)C2)(c2ccc(OC)cc2)c2ccc3sccc3c2)cc1`, the affinity in experiment [1], expressed as Ki, was 7.24 µM. Also, the figures for the IC50 (in experiment [2]; on GABA transporter 4) were 14.1 µM and 2.88 µM, respectively.
`COc1ccc(C(/C=C/CN2CCCC(C(=O)O)C2)(c2ccc(OC)cc2)c2nccs2)cc1` (racemic): the Ki (usually the dissociation constant of the complex between target and ligand, obtained from inhibition or displacement) in experiment [1] was 33.9 µM. The Activity in experiment [3] worked out at 65%; in experiment [4] it was 49%; in experiment [5], 78%; in experiment [6], 82%.
`COc1ccc(C(C/C=C/CN2CCCC(C(=O)O)C2)(c2ccc(OC)cc2)c2ccc(OC)cc2)cc1` (racemic) had a Ki in experiment [1] of 34.7 µM. Moreover, the IC50 – broadly, the concentration that gives 50% inhibition – in experiment [2] was 55 µM; at GABA transporter 4, 41.7 µM. In experiment [5], the Activity was determined as 66%.
`COc1ccc(C(O)(/C=C/CN2CCCC(C(=O)O)C2)c2ccc(OC)cc2)cc1` (racemic): the IC50 was 70.8 µM in experiment [2] and 44.7 µM on GABA transporter 4. The Activity came to 54% in experiment [7], 69% in experiment [5] and 66% in experiment [6].
For `COc1ccc(C(/C=C/CN2CCCC(C(=O)O)C2)(c2ccc(OC)cc2)c2ccc3c(c2)OCO3)cc1` (racemic), the Ki in experiment [1] was 8.71 µM. Besides, the IC50 was 28.2 µM in experiment [2] and 3.16 µM on GABA transporter 4. In experiment [5], the Activity is 53%.
The molecule `O=C(O)C1CCCN(C/C=C/C(c2ccccc2)(c2ccccc2)c2ccccc2)C1` (racemic) showed a Ki in experiment [1] of 8.32 µM. Moreover, the IC50 in experiment [2] is 40.7 µM. Moreover, the Activity in experiment [4] was found to be 89%; in experiment [5], 108%; in experiment [6] it was 103%.
As for `COc1ccc(C(/C=C/CN2CCCC(C(=O)O)C2)(c2ccc(OC)cc2)c2ccsc2)cc1` (racemic), affinity in experiment [1] was put at a Ki of 12.9 µM. In addition, the IC50 was 38.9 µM in experiment [2] and 7.59 µM at GABA transporter 4. The Activity in experiment [5] worked out at 53%.
Turning to `O=C(O)C1CCCN(C/C=C/C(c2ccc3sccc3c2)(c2ccc3sccc3c2)c2ccc3sccc3c2)C1` (racemic), the Activity in experiment [7] was found to be 54%; in experiment [3], 50%. The IC50 at GABA transporter 4 is 20 µM.
In experiment [1], `COc1ccc(CC(/C=C/CN2CCCC(C(=O)O)C2)(c2ccc(OC)cc2)c2ccc(OC)cc2)cc1` (racemic) showed a Ki of 3.09 µM. Also, the IC50 in experiment [2] is 11.2 µM; on GABA transporter 4, 66.1 µM. The Activity in experiment [5] turned out to be 60%; in experiment [6], 53%.
The molecule `O=C(O)C1CCCN(C/C=C/CC(c2ccccc2)(c2ccccc2)c2ccccc2)C1` (racemic) showed a Ki in experiment [1] of 9.77 µM. The IC50 in experiment [2] was 21.4 µM; on GABA transporter 4, 74.1 µM. Moreover, the Activity was determined as 55% in experiment [5] and 56% in experiment [6].
The molecule `O=C(O)C1CCCN(C/C=C/C(c2ccc3occc3c2)(c2ccc3occc3c2)c2ccc3occc3c2)C1` (racemic) gave a Ki in experiment [1] of 2.14 µM. Further, the IC50 is 4.07 µM in experiment [2] and 5.89 µM on GABA transporter 4.
Molecule `Cc1ccc(C(/C=C/CN2CCCC(C(=O)O)C2)(c2ccc(C)cc2)c2ccc(C)cc2)cc1` (racemic) gave a Ki in experiment [1] of 5.5 µM. For the same molecule, the IC50 in experiment [2] is 20.4 µM; at GABA transporter 4 it was 10.7 µM.
In turn, `COc1ccc(C(/C=C/CN2CCCC(C(=O)O)C2)(c2ccc(OC)cc2)c2ccc3sccc3c2)cc1` (racemic) gave a Ki in experiment [1] of 3.31 µM. The IC50 was 10.2 µM in experiment [2] and 3.55 µM on GABA transporter 4.
As to `O=C(O)C1CCCN(C/C=C/C(c2ccc3c(c2)OCO3)(c2ccc3c(c2)OCO3)c2ccc3c(c2)OCO3)C1` (racemic), the Ki in experiment [1] is 6.31 µM. The IC50 is 17.8 µM in experiment [2] and 15.1 µM on GABA transporter 4.
Molecule `COc1ccc(C(/C=C/CN2CCCC(C(=O)O)C2)(Cc2ccccc2)c2ccc(OC)cc2)cc1` (racemic) showed a Ki in experiment [1] of 4.68 µM. For the same molecule, the IC50 in experiment [2] was 15.8 µM. Moreover, the results for the Activity in experiment [4], in experiment [5] and in experiment [6] were 69%, 92% and 66%, respectively.
For the molecule `O=C(O)C1CCCN(C/C=C/CC(c2ccccc2)c2ccccc2)C1` (racemic), affinity in experiment [1] was put at a Ki of 0.0309 µM. Also, the IC50 in experiment [2] was 0.166 µM. For the same molecule, the Activity in experiment [4] stood at 82%; in experiment [5], 96%; in experiment [6], 69%.
Regarding `COc1ccc(C(/C=C/CN2CCCC(C(=O)O)C2)c2ccc(OC)cc2)cc1` (racemic), the affinity in experiment [1] corresponds to a Ki of 3.72 µM. The figures for the IC50 (in experiment [2]; at GABA transporter 4) were 14.1 µM and 31.6 µM, respectively. Moreover, the Activity in experiment [5] stood at 51%.
In the case of `COc1ccc(C(C/C=C/CN2CCCC(C(=O)O)C2)c2ccc(OC)cc2)cc1` (racemic), in experiment [1], the Ki is 3.24 µM. For the same molecule, in experiment [2], the IC50 was 13.5 µM. For the same molecule, the Activity in experiment [4] came to 84%; in experiment [5] it was 96%; in experiment [6], 71%.
On to `COc1ccc(C(/C=C/CN2CCCC(C(=O)O)C2)(c2ccc(OC)cc2)c2nccn2C)cc1` (racemic), for which the Activity in experiment [7] is 62%; in experiment [3] it was 70%; in experiment [4] it was 83%; in experiment [5] it was 72%; in experiment [6], 83%.
